How the values were obtained:
[1] = target: Dual specificity mitogen-activated protein kinase kinase 5 (Homo sapiens) (UniProt Q13163); conditions: Compound concentration 1000.0 nM
[2] = target: Serine/threonine-protein kinase OSR1 (Homo sapiens) (UniProt O95747); conditions: Compound concentration 1000.0 nM
[3] = target: Alpha-2B adrenergic receptor (Homo sapiens) (UniProt P18089); conditions: Compound concentration 10.0 uM
[4] = target: Serine/threonine-protein kinase 3 (Homo sapiens) (UniProt Q13188); conditions: Compound concentration 1000.0 nM
[5] = target: Receptor-type tyrosine-protein kinase FLT3 (Homo sapiens) (UniProt P36888); conditions: Compound concentration 1000.0 nM
[6] = target: Serine/threonine-protein kinase SBK1 (Homo sapiens) (UniProt Q52WX2); conditions: Compound concentration 1000.0 nM
[7] = target: Vascular endothelial growth factor receptor 2 (Homo sapiens) (UniProt P35968); conditions: Compound concentration 1000.0 nM
[8] = system: Epidermal growth factor receptor (Homo sapiens), P00533 [UNDEFINED MUTATION]; conditions: Compound concentration 1000.0 nM
[9] = target: Sodium-dependent serotonin transporter (Homo sapiens) (UniProt P31645); conditions: Compound concentration 10.0 uM
[10] = target: RAC-beta serine/threonine-protein kinase (Homo sapiens) (UniProt P31751); conditions: Compound concentration 1000.0 nM
[11] = target: Calcium/calmodulin-dependent protein kinase type 1 (Homo sapiens) (UniProt Q14012); conditions: Compound concentration 1000.0 nM
[12] = target: Serine/threonine-protein kinase DCLK3 (Homo sapiens) (UniProt Q9C098); conditions: Compound concentration 1000.0 nM
[13] = target: Serine/threonine-protein kinase LATS1 (Homo sapiens) (UniProt O95835); conditions: Compound concentration 1000.0 nM
[14] = target: Angiopoietin-1 receptor (Homo sapiens) (UniProt Q02763); conditions: Compound concentration 1000.0 nM
[15] = target: Serine/threonine-protein kinase D3 (Homo sapiens) (UniProt O94806); conditions: Compound concentration 1000.0 nM
[16] = target: Bone morphogenetic protein receptor type-1B (Homo sapiens) (UniProt O00238); conditions: Compound concentration 1000.0 nM
[17] = target: Tyrosine-protein kinase Blk (Homo sapiens) (UniProt P51451); conditions: Compound concentration 1000.0 nM
[18] = target: Serine/threonine-protein kinase N2 (Homo sapiens) (UniProt Q16513); conditions: Compound concentration 1000.0 nM
[19] = target: Mitogen-activated protein kinase 15 (Homo sapiens) (UniProt Q8TD08); conditions: Compound concentration 1000.0 nM
[20] = target: Atypical kinase COQ8B, mitochondrial (Homo sapiens) (UniProt Q96D53); conditions: Compound concentration 1000.0 nM
[21] = target: Mitogen-activated protein kinase kinase kinase kinase 3 (Homo sapiens) (UniProt Q8IVH8); conditions: Compound concentration 1000.0 nM
[22] = target: Serine/threonine-protein kinase Nek5 (Homo sapiens) (UniProt Q6P3R8); conditions: Compound concentration 1000.0 nM
[23] = target: Interleukin-1 receptor-associated kinase 3 (Homo sapiens) (UniProt Q9Y616); conditions: Compound concentration 1000.0 nM
[24] = system: Mast/stem cell growth factor receptor Kit (Homo sapiens), P10721 [V559D,V654A]; conditions: Compound concentration 1000.0 nM
[25] = target: Serine/threonine-protein kinase 16 (Homo sapiens) (UniProt O75716); conditions: Compound concentration 1000.0 nM
[26] = target: Dual specificity testis-specific protein kinase 1 (Homo sapiens) (UniProt Q15569); conditions: Compound concentration 1000.0 nM
[27] = target: Mitogen-activated protein kinase 11 (Homo sapiens) (UniProt Q15759); conditions: Compound concentration 1000.0 nM
[28] = target: Phosphatidylinositol 4-phosphate 5-kinase type-1 alpha (Homo sapiens) (UniProt Q99755); conditions: Compound concentration 1000.0 nM
[29] = target: Transient receptor potential cation channel subfamily M member 6 (Homo sapiens) (UniProt Q9BX84); conditions: Compound concentration 1000.0 nM
[30] = target: Phosphatidylinositol 4,5-bisphosphate 3-kinase catalytic subunit alpha isoform (Homo sapiens) (UniProt P42336); conditions: Compound concentration 1000.0 nM
[31] = target: Serine/threonine-protein kinase Chk1 (Homo sapiens) (UniProt O14757); conditions: Compound concentration 1000.0 nM
[32] = target: Serine/threonine-protein kinase WNK1 (Homo sapiens) (UniProt Q9H4A3); conditions: Compound concentration 1000.0 nM
[33] = target: BDNF/NT-3 growth factors receptor (Homo sapiens) (UniProt Q16620); conditions: Compound concentration 1000.0 nM
[34] = target: Fibroblast growth factor receptor 4 (Homo sapiens) (UniProt P22455); conditions: Compound concentration 1000.0 nM
[35] = system: Receptor-type tyrosine-protein kinase FLT3 (Homo sapiens), P36888 [UNDEFINED MUTATION]; conditions: Compound concentration 1000.0 nM
[36] = target: Tyrosine-protein kinase ZAP-70 (Homo sapiens) (UniProt P43403); conditions: Compound concentration 1000.0 nM
[37] = system: Proto-oncogene tyrosine-protein kinase receptor Ret (Homo sapiens), P07949 [V804L]; conditions: Compound concentration 1000.0 nM
[38] = target: Activin receptor type-2A (Homo sapiens) (UniProt P27037); conditions: Compound concentration 1000.0 nM
[39] = target: NUAK family SNF1-like kinase 1 (Homo sapiens) (UniProt O60285); conditions: Compound concentration 1000.0 nM
[40] = target: cGMP-dependent protein kinase 2 (Homo sapiens) (UniProt Q13237); conditions: Compound concentration 1000.0 nM
[41] = target: Myosin light chain kinase 2, skeletal/cardiac muscle (Homo sapiens) (UniProt Q9H1R3); conditions: Compound concentration 1000.0 nM
[42] = system: ALK tyrosine kinase receptor (Homo sapiens), Q9UM73 [C1156Y]; conditions: Compound concentration 1000.0 nM
[43] = target: Ephrin type-A receptor 3 (Homo sapiens) (UniProt P29320); conditions: Compound concentration 1000.0 nM
[44] = target: Phosphatidylinositol 5-phosphate 4-kinase type-2 beta (Homo sapiens) (UniProt P78356); conditions: Compound concentration 1000.0 nM
Sequence of Phosphatidylinositol 5-phosphate 4-kinase type-2 beta (Homo sapiens) (P78356 whole entry): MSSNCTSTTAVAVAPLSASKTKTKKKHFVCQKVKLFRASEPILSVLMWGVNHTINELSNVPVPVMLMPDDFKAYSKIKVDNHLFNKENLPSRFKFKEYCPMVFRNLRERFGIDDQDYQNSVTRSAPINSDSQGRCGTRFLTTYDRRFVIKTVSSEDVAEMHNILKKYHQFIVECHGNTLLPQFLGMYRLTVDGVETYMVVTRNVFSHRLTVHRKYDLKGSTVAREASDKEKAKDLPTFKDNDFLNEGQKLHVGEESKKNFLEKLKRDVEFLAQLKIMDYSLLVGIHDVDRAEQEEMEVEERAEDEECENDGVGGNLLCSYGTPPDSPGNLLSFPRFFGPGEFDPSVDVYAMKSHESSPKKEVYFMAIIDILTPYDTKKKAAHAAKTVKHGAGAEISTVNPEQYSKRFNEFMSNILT

Sequence of Bone morphogenetic protein receptor type-1B (Homo sapiens) (O00238 whole entry): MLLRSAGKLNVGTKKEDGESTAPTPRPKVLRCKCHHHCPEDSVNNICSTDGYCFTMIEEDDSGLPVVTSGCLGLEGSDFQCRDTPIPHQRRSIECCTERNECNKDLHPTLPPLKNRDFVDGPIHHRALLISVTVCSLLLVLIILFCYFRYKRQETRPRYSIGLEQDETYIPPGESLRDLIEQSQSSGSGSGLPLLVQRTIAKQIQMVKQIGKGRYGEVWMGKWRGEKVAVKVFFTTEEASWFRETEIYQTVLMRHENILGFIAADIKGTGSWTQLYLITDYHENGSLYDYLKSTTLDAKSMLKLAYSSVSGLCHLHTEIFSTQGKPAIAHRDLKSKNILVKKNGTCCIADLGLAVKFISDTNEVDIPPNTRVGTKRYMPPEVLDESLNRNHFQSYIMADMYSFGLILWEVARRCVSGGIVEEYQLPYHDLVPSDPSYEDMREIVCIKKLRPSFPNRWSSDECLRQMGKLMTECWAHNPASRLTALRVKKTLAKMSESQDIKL
Sequence of Serine/threonine-protein kinase OSR1 (Homo sapiens) (O95747 2-527 limits assumed): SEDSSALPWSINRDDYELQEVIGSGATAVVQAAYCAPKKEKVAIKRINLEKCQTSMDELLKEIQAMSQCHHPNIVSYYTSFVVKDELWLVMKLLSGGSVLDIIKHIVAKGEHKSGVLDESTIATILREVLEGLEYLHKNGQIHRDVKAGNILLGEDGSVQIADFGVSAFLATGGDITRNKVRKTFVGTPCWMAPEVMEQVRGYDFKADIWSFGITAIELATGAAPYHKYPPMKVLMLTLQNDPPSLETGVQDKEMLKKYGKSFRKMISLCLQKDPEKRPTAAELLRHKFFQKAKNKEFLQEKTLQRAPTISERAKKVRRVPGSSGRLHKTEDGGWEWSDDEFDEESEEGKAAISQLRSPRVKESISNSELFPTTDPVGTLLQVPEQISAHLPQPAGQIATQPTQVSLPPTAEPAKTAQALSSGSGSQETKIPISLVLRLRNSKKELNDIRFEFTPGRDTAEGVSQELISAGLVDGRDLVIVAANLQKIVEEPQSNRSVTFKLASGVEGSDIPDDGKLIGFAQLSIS
Sequence of Serine/threonine-protein kinase D3 (Homo sapiens) (O94806 whole entry): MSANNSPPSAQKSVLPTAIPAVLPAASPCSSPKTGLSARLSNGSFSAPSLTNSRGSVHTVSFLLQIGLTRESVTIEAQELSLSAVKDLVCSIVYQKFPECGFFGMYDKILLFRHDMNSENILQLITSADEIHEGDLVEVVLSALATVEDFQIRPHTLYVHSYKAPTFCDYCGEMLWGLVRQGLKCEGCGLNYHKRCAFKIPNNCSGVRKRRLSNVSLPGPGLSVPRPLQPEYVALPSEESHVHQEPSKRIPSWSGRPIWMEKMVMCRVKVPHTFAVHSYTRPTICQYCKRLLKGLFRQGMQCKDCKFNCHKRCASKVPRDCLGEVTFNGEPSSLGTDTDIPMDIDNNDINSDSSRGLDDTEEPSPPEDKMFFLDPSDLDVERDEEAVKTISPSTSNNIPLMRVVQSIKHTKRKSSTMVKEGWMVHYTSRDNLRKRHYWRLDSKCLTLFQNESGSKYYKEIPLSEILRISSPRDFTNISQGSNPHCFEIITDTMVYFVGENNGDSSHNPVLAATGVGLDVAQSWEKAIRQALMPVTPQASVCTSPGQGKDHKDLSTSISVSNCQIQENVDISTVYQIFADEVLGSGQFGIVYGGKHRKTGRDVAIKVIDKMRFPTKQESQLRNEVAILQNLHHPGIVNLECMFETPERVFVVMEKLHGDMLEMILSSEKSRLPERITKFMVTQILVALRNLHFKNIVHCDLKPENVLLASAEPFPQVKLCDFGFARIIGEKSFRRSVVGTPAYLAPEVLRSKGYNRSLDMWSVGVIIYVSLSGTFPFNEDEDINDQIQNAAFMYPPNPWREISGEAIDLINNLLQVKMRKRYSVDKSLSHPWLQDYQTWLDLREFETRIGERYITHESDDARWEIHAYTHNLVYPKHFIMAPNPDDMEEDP
Sequence of Serine/threonine-protein kinase N2 (Homo sapiens) (Q16513 whole entry, looked up): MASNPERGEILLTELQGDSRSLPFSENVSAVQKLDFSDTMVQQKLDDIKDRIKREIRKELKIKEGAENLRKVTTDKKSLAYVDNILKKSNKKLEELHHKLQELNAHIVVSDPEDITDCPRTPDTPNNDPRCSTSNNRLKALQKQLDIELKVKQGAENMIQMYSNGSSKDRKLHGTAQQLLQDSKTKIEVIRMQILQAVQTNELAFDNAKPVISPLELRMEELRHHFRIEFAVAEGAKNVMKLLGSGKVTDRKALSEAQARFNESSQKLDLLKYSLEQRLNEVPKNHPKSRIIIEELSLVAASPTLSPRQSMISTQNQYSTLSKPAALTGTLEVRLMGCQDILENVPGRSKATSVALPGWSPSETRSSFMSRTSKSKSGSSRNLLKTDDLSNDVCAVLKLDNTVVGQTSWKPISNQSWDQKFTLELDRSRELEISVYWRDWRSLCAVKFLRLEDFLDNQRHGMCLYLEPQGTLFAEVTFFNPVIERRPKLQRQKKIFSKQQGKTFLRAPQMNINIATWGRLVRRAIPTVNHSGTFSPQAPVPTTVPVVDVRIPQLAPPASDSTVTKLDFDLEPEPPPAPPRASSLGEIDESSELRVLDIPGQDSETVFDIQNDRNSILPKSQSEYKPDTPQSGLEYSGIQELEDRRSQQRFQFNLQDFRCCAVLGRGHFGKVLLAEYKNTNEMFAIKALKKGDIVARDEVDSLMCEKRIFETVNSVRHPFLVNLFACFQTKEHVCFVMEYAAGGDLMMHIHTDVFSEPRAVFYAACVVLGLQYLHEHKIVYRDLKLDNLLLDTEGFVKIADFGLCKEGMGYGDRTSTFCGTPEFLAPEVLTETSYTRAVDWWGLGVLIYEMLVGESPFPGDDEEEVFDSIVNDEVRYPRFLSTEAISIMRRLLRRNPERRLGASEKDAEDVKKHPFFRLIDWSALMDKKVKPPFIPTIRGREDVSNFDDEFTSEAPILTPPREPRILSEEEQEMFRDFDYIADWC
Sequence of Myosin light chain kinase 2, skeletal/cardiac muscle (Homo sapiens) (Q9H1R3 whole entry): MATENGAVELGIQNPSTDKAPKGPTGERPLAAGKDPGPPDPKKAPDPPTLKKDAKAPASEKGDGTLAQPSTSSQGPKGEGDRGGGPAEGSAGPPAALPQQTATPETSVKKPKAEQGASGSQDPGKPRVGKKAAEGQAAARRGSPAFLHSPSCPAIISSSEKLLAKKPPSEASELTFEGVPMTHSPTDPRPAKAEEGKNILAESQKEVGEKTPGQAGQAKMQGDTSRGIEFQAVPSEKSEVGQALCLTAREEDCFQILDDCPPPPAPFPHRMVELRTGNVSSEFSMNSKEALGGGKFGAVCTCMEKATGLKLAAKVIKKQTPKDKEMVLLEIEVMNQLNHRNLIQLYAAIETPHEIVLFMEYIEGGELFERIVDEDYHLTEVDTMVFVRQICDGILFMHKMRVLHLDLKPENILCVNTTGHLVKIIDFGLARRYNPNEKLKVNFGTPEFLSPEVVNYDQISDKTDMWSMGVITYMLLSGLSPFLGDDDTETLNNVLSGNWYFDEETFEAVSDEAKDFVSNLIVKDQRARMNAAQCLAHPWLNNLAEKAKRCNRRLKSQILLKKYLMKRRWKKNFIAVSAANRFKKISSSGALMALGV
Sequence of Fibroblast growth factor receptor 4 (Homo sapiens) (P22455 22-802 limits assumed): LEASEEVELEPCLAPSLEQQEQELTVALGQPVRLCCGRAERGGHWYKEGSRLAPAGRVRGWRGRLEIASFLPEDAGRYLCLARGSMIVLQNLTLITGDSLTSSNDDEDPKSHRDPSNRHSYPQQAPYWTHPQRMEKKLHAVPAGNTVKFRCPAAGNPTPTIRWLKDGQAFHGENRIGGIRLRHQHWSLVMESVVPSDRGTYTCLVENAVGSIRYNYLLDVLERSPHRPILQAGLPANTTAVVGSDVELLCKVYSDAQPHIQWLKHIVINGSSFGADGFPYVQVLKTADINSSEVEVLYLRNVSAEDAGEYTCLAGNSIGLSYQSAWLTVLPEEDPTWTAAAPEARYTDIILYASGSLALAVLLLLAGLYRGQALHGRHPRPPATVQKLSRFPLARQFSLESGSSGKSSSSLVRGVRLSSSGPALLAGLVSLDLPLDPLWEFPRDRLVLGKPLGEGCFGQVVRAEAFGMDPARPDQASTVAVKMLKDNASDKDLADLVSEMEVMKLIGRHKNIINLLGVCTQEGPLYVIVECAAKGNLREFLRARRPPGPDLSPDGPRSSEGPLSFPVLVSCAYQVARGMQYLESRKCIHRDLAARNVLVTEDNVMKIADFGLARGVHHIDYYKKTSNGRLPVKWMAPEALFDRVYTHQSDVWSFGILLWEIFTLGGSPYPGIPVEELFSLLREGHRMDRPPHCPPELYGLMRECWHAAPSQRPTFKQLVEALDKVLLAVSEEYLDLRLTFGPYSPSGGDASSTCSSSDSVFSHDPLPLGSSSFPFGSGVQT
Sequence of Serine/threonine-protein kinase 16 (Homo sapiens) (O75716 whole entry): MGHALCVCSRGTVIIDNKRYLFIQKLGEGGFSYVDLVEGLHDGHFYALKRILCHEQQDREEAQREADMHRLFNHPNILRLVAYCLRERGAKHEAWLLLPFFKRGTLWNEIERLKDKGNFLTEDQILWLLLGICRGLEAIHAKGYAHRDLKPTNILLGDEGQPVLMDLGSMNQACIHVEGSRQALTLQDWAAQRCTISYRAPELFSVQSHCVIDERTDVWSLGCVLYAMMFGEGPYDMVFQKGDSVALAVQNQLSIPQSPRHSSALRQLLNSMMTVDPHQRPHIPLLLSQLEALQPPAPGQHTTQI

CN([C@@H]1CCc2c(CC(=O)O)c3ccccc3n2C1)S(=O)(=O)c1ccc(F)cc1 [MK-7246]
inactive: residual activity [1] 100% | residual activity [2] 100% | inhibition [3] 12.7% | residual activity [4] 100% | residual activity [5] 100% | residual activity [6] 100% | residual activity [7] 82% | residual activity [8] 100% | inhibition [9] 9.29% | residual activity [10] 95% | residual activity [11] 100% | residual activity [12] 99% | residual activity [13] 69% | residual activity [14] 92% | residual activity [15] 94% | residual activity [16] 100% | residual activity [17] 100% | residual activity [18] 100% | residual activity [19] 100% | residual activity [20] 100% | residual activity [21] 100% | residual activity [22] 100% | residual activity [23] 100% | residual activity [24] 100% | residual activity [25] 99% | residual activity [26] 91% | residual activity [27] 88% | residual activity [28] 100% | residual activity [29] 85% | residual activity [30] 100% | residual activity [31] 100% | residual activity [32] 96% | residual activity [33] 100% | residual activity [34] 91% | residual activity [35] 100% | residual activity [36] 100% | residual activity [37] 99% | residual activity [38] 100% | residual activity [39] 100% | residual activity [40] 100% | residual activity [41] 100% | residual activity [42] 98% | residual activity [43] 95% | residual activity [44] 80%

CN([C@@H]1CCc2c(CC(=O)O)c3cc(S(C)(=O)=O)ccc3n2C1)S(=O)(=O)c1ccc(F)cc1
inactive: residual activity [1] 100% | residual activity [2] 100% | inhibition [3] -2.39% | residual activity [4] 98% | residual activity [5] 100% | residual activity [6] 100% | residual activity [7] 85% | residual activity [8] 100% | inhibition [9] 5.16% | residual activity [10] 92% | residual activity [11] 80% | residual activity [12] 71% | residual activity [13] 61% | residual activity [14] 88% | residual activity [15] 100% | residual activity [16] 100% | residual activity [17] 99% | residual activity [18] 100% | residual activity [19] 100% | residual activity [20] 100% | residual activity [21] 100% | residual activity [22] 100% | residual activity [23] 100% | residual activity [24] 100% | residual activity [25] 95% | residual activity [26] 73% | residual activity [27] 83% | residual activity [28] 100% | residual activity [29] 74% | residual activity [30] 100% | residual activity [31] 100% | residual activity [32] 95% | residual activity [33] 100% | residual activity [34] 99% | residual activity [35] 82% | residual activity [36] 100% | residual activity [37] 100% | residual activity [38] 100% | residual activity [39] 100% | residual activity [40] 95% | residual activity [41] 100% | residual activity [42] 72% | residual activity [43] 97% | residual activity [44] 59%

— ChEMBL document CHEMBL4507290 (2021)
